Bounds are passed on as bounds.

In experiment [1] the test system is H2122 human lung cancer cells. In words: In vitro growth inhibition of human cancer cells under anchorage-independent conditions in soft agar (colony count). The experiment is classed as cell-based. To be noted: NCI-H2122, 336 h, 50% reduction in colony number vs DMSO controls, two weeks incubation, MTT stain. The protocol:
In vitro growth inhibition of human cancer cells: Growth inhibition of human lung cancer cells by the compounds was measured under anchorage-independent conditions in soft agar. H2122 human lung cancer cells were seeded into 6-well plates (coated with a base layer made of 2 ml of 1% low-melting-point agarose) at 15,000 cells per well in 3 ml of 0.4% low-melting-point agarose containing various concentration of drug. Two weeks after incubation, cells were stained with 1 mg/ml MTT and colonies were counted under a microscope. […] Data are analyzed using Excel (Microsoft), and IC50 values are determined using Prism (Graphpad). The results of the in vitro H2122 growth inhibition activity of the representative compounds of the present invention are shown in the following Table: […]

Experiment [2] deals with MiaPaCa2 pancreatic cell line. To be noted: inhibitory effects were modest; cited from earlier work.

Take `CCCc1n[nH]c2c1C(c1cc(Cl)cc(Cl)c1O)C(C#N)=C(N)O2` (stereo not drawn) [Compound 1]: in experiment [1], the IC50 worked out at 2210 nM. In other words, the single-digit micromolar range.

With `CCCc1n[nH]c2c1C(c1cc(OC)ccc1OC)C(C#N)=C(N)O2` (stereo not drawn) [Compound 2], half-maximal inhibition in experiment [1] (IC50) required 3560 nM.

In experiment [1], `CCCc1n[nH]c2c1C(c1ccc3ccccc3c1)C(C#N)=C(N)O2` (stereo not drawn) [Compound 3] came in with an IC50 of 3720 nM.

For `CCCc1nn(C)c2c1C(c1cc(Cl)cc(Cl)c1O)C(C#N)=C(N)O2` (stereo not drawn) [Compound 4], the IC50 in experiment [1] was 1590 nM.

Compound `CCCc1nn(C)c2c1C(c1cc(OC)ccc1OC)C(C#N)=C(N)O2` (stereo not drawn) [Compound 5] registered an IC50 in experiment [1] of 3860 nM.

As to `Cc1n[nH]c2c1C(c1ccc(OC(F)(F)F)cc1)C(C#N)=C(N)O2` (stereo not drawn) [Compound 7], the IC50 in experiment [1] is 3210 nM.

Compound `COc1cc(OC)c(C2C(C#N)=C(N)Oc3[nH]nc(C)c32)c(OC)c1` (stereo not drawn) [Compound 8] came in with an IC50 in experiment [1] of 3280 nM. The IC50 values of the last two compounds are within 1.5-fold of each other.

As for `Cc1n[nH]c2c1C(c1ccc(C(F)(F)F)cc1)C(C#N)=C(N)O2` (stereo not drawn) [Compound 9], half-maximal inhibition in experiment [1] (IC50) was put at 5050 nM.

In the case of `Cc1n[nH]c2c1C(c1ccc(-n3ccnc3)cc1)C(C#N)=C(N)O2` (stereo not drawn) [Compound 10], in experiment [1], the IC50 stood at 900 nM.

Regarding `COc1cccc(OC)c1C1C(C#N)=C(N)Oc2c1c(C)nn2C` (stereo not drawn) [Compound 11], the concentration for half-maximal inhibition (IC50) in experiment [1] stood at 2190 nM.

`Cc1nn(C)c2c1C(c1ccc(-c3ccccc3)cc1)C(C#N)=C(N)O2` (stereo not drawn) [Compound 12] returned a half-inhibitory concentration (IC50) in experiment [1] of 4000 nM.

For the compound `COc1cc(C2C(C#N)=C(N)Oc3c2c(C)nn3C)ccc1C(F)(F)F` (stereo not drawn) [Compound 13], the IC50 in experiment [1] was 2990 nM.

Compound `Cc1nn(C)c2c1C(c1cccc(-c3cncnc3)c1)C(C#N)=C(N)O2` (stereo not drawn) [Compound 14] gave an IC50 in experiment [1] of 5050 nM.

Consider `COc1cc(C(F)(F)F)ccc1C1C(C#N)=C(N)Oc2c1c(C)nn2C` (stereo not drawn) [Compound 15], for which, in experiment [1], half-maximal inhibition (IC50) required 1710 nM.

With `Cc1nn(C)c2c1C(c1ccc(-n3ccnc3C)cc1)C(C#N)=C(N)O2` (stereo not drawn) [Compound 16], the IC50 in experiment [1] stood at 1020 nM. This IC50 is about 1.7-fold lower than that of the compound before.

In the case of `Cn1nc(C(C)(C)C)c2c1OC(N)=C(C#N)C2c1ccc(-n2ccnc2)cc1` (stereo not drawn) [Compound 17], it took 1350 nM to reach half-maximal inhibition in experiment [1] (IC50). The IC50 values of the last two compounds are within 1.5-fold of each other.

`Cn1nc(C2CCCC2)c2c1OC(N)=C(C#N)C2c1ccc(-n2ccnc2)cc1` (stereo not drawn) [Compound 18] displayed an IC50 in experiment [1] of 1280 nM.

`Cn1nc(-c2cc3ccccc3o2)c2c1OC(N)=C(C#N)C2c1ccc(-n2ccnc2)cc1` (stereo not drawn) [Compound 20] gave a 50% inhibitory concentration (IC50) in experiment [1] of 490 nM.

Turning to `Cn1nc(Cc2ccccc2)c2c1OC(N)=C(C#N)C2c1ccc(-n2ccnc2)cc1` (stereo not drawn) [Compound 21], it took 890 nM to reach half-maximal inhibition in experiment [1] (IC50).

The compound `Cn1nc(-c2ccccn2)c2c1OC(N)=C(C#N)C2c1ccc(-n2ccnc2)cc1` (stereo not drawn) [Compound 22] yielded an IC50 in experiment [1] of 2040 nM. Against the preceding compound, the IC50 is about 2.3-fold higher.

Take `Cn1nc(-c2cnccn2)c2c1OC(N)=C(C#N)C2c1ccc(-n2ccnc2)cc1` (stereo not drawn) [Compound 23]: in experiment [1], the half-inhibitory concentration (IC50) turned out to be 1080 nM.

`Cc1nn(C)c2c1C(c1ccc(-c3ncccn3)cc1)C(C#N)=C(N)O2` (stereo not drawn) [Compound 24] yielded an IC50 in experiment [1] of 6130 nM.

In experiment [1], `CC(C)c1nn(C)c2c1C(c1ccc(-n3ccnc3)cc1)C(C#N)=C(N)O2` (stereo not drawn) [Compound 25] came in with an IC50 of 1070 nM.

Turning to `CC(C)c1nn(C)c2c1C(c1ccc(C(F)(F)F)cc1)C(C#N)=C(N)O2` (stereo not drawn) [Compound 26], in experiment [1], half-maximal inhibition (IC50) required 2960 nM.

As for `Cc1nn(C)c2c1C(c1ccc(-n3cnc4ccccc43)cc1)C(C#N)=C(N)O2` (stereo not drawn) [Compound 27], inhibition in experiment [1] was half-maximal at 840 nM (IC50).

In the case of `Cn1nc(-c2cc3ccccc3o2)c2c1OC(N)=C(C#N)C2c1ccc(C(F)(F)F)cc1` (stereo not drawn) [Compound 28], the IC50 in experiment [1] worked out at 3420 nM.

In turn, `Cn1nc(-c2cc3ccccc3o2)c2c1OC(N)=C(C#N)C2c1ccc(OC(F)(F)F)cc1` (stereo not drawn) [Compound 29] came in with a half-inhibitory concentration (IC50) in experiment [1] of 3910 nM.

Regarding `Cn1nc(-c2cc3ccccc3o2)c2c1OC(N)=C(C#N)C2c1cc(Cl)cc(Cl)c1O` (stereo not drawn) [Compound 30], the IC50 in experiment [1] is 1710 nM. Compared with the last compound, the IC50 is about 2.3-fold lower.

Take `COc1ccc(OC)c(C2C(C#N)=C(N)Oc3c2c(-c2cc4ccccc4o2)nn3C)c1` (stereo not drawn) [Compound 31]: in experiment [1], the IC50 stood at 6210 nM. This IC50 is about 3.6-fold higher than that of the compound before.

For the compound `Cc1nnc(-c2ccc(C3C(C#N)=C(N)Oc4c3c(C)nn4C)cc2)o1` (stereo not drawn) [Compound 32], in experiment [1], the midpoint of inhibition, the IC50, lay at 2910 nM.

As to `Cc1nn(C)c2c1C(c1ccc(-n3cncn3)cc1)C(C#N)=C(N)O2` (stereo not drawn) [Compound 33], it took 2490 nM to reach half-maximal inhibition in experiment [1] (IC50).

Take `Cc1nn(C)c2c1C(c1ccc(N(C)C)cc1)C(C#N)=C(N)O2` (stereo not drawn) [Compound 34]: the IC50 in experiment [1] is > 10000 nM.

Take `CC(=O)Nc1ccc(C2C(C#N)=C(N)Oc3c2c(C)nn3C)cc1` (stereo not drawn) [Compound 35]: it took 2780 nM to reach half-maximal inhibition in experiment [1] (IC50).

In experiment [1], `Cc1nn(C)c2c1C(c1ccc(N3CCCC3)cc1)C(C#N)=C(N)O2` (stereo not drawn) [Compound 36] returned a concentration for half-maximal inhibition (IC50) of 8390 nM.

In experiment [1], `Cc1nn(C)c2c1C(c1ccc(-n3cccc3)cc1)C(C#N)=C(N)O2` (stereo not drawn) [Compound 37] returned a concentration for half-maximal inhibition (IC50) of 6020 nM.

Turning to `Cc1nn(C)c2c1C(c1ccc(-n3cccn3)cc1)C(C#N)=C(N)O2` (stereo not drawn) [Compound 38], the IC50 in experiment [1] was determined as 5750 nM.

Compound `Cc1cn(-c2ccc(C3C(C#N)=C(N)Oc4c3c(C)nn4C)cc2)cn1` (stereo not drawn) [Compound 39] had an IC50 in experiment [1] of 5110 nM.

`Cc1nccn1-c1ccc(C2C(C#N)=C(N)Oc3c2c(-c2cc4ccccc4o2)nn3C)cc1` (stereo not drawn) [Compound 40] showed an IC50 in experiment [1] of 1590 nM. This IC50 is about 3.2-fold lower than that of the compound before.

`Cn1nc(-c2n[nH]c3ccccc23)c2c1OC(N)=C(C#N)C2c1ccc(-n2ccnc2)cc1` (stereo not drawn) [Compound 41] gave a half-maximal inhibitory concentration (IC50) in experiment [1] of 1820 nM.

In experiment [1], `Cc1nn(C(C)(C)C)c2c1C(c1ccc(-n3ccnc3)cc1)C(C#N)=C(N)O2` (stereo not drawn) [Compound 42] displayed an IC50 of 1120 nM.

As to `Cc1nn(-c2ccccc2)c2c1C(c1ccc(-n3ccnc3)cc1)C(C#N)=C(N)O2` (stereo not drawn) [Compound 43], in experiment [1], the half-maximal inhibitory concentration (IC50) was found to be 700 nM.

For `Cc1nn(-c2ccc(F)cc2)c2c1C(c1ccc(-n3ccnc3)cc1)C(C#N)=C(N)O2` (stereo not drawn) [Compound 44], half-maximal inhibition in experiment [1] (IC50) required 980 nM.

Regarding `COc1ccc(-n2nc(C)c3c2OC(N)=C(C#N)C3c2ccc(-n3ccnc3)cc2)cc1` (stereo not drawn) [Compound 45], the 50% inhibitory concentration (IC50) in experiment [1] is 1620 nM.

As for `Cc1nn(-c2ccncc2)c2c1C(c1ccc(-n3ccnc3)cc1)C(C#N)=C(N)O2` (stereo not drawn) [Compound 46], half-maximal inhibition in experiment [1] (IC50) required 2080 nM. The IC50 values of the last two compounds are within 1.5-fold of each other.

For the compound `COc1ccc(-c2n[nH]c3c2C(c2ccc(-n4ccnc4)cc2)C(C#N)=C(N)O3)cc1` (stereo not drawn) [Compound 47], in experiment [1], the 50% inhibitory concentration (IC50) came out at 1320 nM. This IC50 is about 1.6-fold lower than that of the compound before.

In experiment [1], `COc1ccc(-c2nn(C)c3c2C(c2ccc(-n4ccnc4)cc2)C(C#N)=C(N)O3)cc1` (stereo not drawn) [Compound 48] came in with a 50% inhibitory concentration (IC50) of 1320 nM.

Turning to `COc1ccc(-c2nn(-c3ccccc3)c3c2C(c2ccc(-n4ccnc4)cc2)C(C#N)=C(N)O3)cc1` (stereo not drawn) [Compound 49], the IC50 in experiment [1] amounted to 3150 nM. Compared with the last compound, the IC50 is about 2.4-fold higher.

For `COC(=O)[C@H](CC(C)C)NC(=O)N1CCN(Cc2nc[nH]c2C)C(=O)[C@@H]1Cc1ccccc1` [GGTI-2417], the “inhibition of in vitro growth and survival” value in experiment [2] is “inhibit the in vitro growth and survival”.

The record behind these values is patent publication US20180170942A1, “POLYCYCLIC DERIVATIVES TARGETING RAL GTPASES AND THEIR THERAPEUTICAL APPLICATIONS” (NANTBIO, INC., priority 2015, published 2018).
